Measured values from patent publication US20260224566A1, “Obicetrapib and Ezetimibe Combination Treatment and Fixed Dose Pharmaceutical Compositions” (NewAmsterdam Pharma B.V., priority 2023, published 2026).

How the values were obtained:
[1] = system: participants currently receiving high-intensity statin therapy; test: ROSE2 Phase 2b clinical trial: LDL-C and other lipid efficacy endpoints; format: in vivo, human; conditions: ROSE2; ezetimibe 10 mg on top of obicetrapib 10 mg
Experimental: The primary objective of this study is to evaluate the effect of obicetrapib 10 mg+ezetimibe 10 mg combination therapy compared with placebo, when used as an adjunct to high-intensity statin therapy, on LDL-C at Day 84.
The secondary objectives of this study include the following, in hierarchical order: • To evaluate the effect of obicetrapib 10 mg monotherapy compared with placebo, when used as an adjunct to high-intensity statin therapy, on LDL-C at Day 84; • To evaluate the effect of obicetrapib 10 mg+ezetimibe 10 mg combination therapy compared with placebo, when used as an adjunct to high-intensity statin therapy, on ApoB at Day 84; and • To evaluate the effect of obicetrapib 10 mg monotherapy compared with placebo, when used as an adjunct to high-intensity statin therapy, on ApoB at Day 84.
This study will be a placebo-controlled, double-blind, randomized, Phase 2 study to evaluate the efficacy, safety, and tolerability of obicetrapib 10 mg, both in combination with ezetimibe 10 mg and as monotherapy, as an adjunct to high-intensity statin therapy. This study will take place at approximately 20 sites in the United States.
Up to 2 weeks after the Screening Visit, participants will return to the site on Day 1 (Visit 2) and confirm study eligibility before being randomized and beginning treatment. Approximately 114 eligible participants (38 participants per treatment group) will be randomized in a 1:1:1 ratio to 1 of the following treatment groups: • Combination therapy: Obicetrapib 10 mg+ezetimibe 10 mg (administered as one 10 mg obicetrapib tablet and one 10 mg ezetimibe capsule); • Obicetrapib monotherapy: Obicetrapib 10 mg (administered as one 10 mg obicetrapib tablet and 1 placebo capsule); or. • Placebo (administered as 1 placebo tablet and 1 placebo capsule).
During the 12-week Treatment Period, the assigned study drugs will be administered by the participants orally with water, once daily on Day 1 to Day 84 at approximately the same time each morning. Participants will return to the site on Day 28 (±2 days), Day 84 (±2 days), and Day 112 (±2 days) for efficacy, safety, and pharmacokinetic (PK) assessments. Participants, Investigators, the Clinical Research Organization (CRO), and the Sponsor will be blinded to all lipid results from Day 1 (Visit 2) for the first participant until all enrolled participants complete the Day 84 (End of Treatment) visit or are withdrawn from the study, in order to protect blinding to treatment assignment.
The primary efficacy endpoint is the percent change from Day 1 to Day 84 in LDL-C for the obicetrapib 10 mg+ezetimibe 10 mg combination treatment group compared with the placebo group.
The secondary efficacy endpoints include the following, in hierarchical order: • Percent change from Day 1 to Day 84 in LDL-C for the obicetrapib 10 mg monotherapy. • treatment group compared with the placebo group; • Percent change from Day 1 to Day 84 in ApoB for the obicetrapib 10 mg+ezetimibe 10 mg • combination treatment group compared with the placebo group; and • Percent change from Day 1 to Day 84 in ApoB for the obicetrapib 10 mg monotherapy treatment group compared with the placebo group.
The exploratory efficacy endpoints include the following: • Percent change from Day 1 to Day 84 in non-HDL-C, VLDL-C, HDL-C, TG, ApoE, Lp(a), and HDL-ApoE for the obicetrapib 10 mg+ezetimibe 10 mg combination treatment group compared with the placebo group and for the obicetrapib 10 mg monotherapy treatment group compared with the placebo group; and • Proportion of participants at Day 84 that achieve LDL-C <2.6 mmol/L (<100 mg/dL), LDL-C <1.8 mmol/L (<70 mg/dL), and LDL-C <1.3 mmol/L (<50 mg/dL) for the obicetrapib 10 mg+ezetimibe 10 mg combination treatment group compared with the placebo group and for the obicetrapib 10 mg monotherapy treatment group compared with the placebo group. […]

[2] = system: ApoE*3-Leiden.CETP transgenic mice; test: Example 12: plasma lipids, VLDL clearance, LDL receptor, fecal and biliary sterols in ApoE*3-Leiden.CETP mice; format: in vivo, mouse
Description: Obicetrapib is a selective cholesteryl ester transfer protein (CETP) inhibitor currently in clinical development for the treatment of hypercholesterolemia and reduction of cardiovascular risk that strongly reduces Apolipoprotein B (ApoB) and low-density lipoprotein cholesterol (LDL-C) and concomitantly increases plasma high-density lipoprotein cholesterol (HDL-C). Ezetimibe reduces absorption of biliary and dietary cholesterol from the small intestine, thereby reducing LDL-C levels. The current study was carried out to elucidate the mechanism of action responsible for the observed decrease in non-HDL-C by obicetrapib monotherapy and in combination with ezetimibe in a translational mouse model for hyperlipidemia and atherosclerosis.
The experimental protocol is illustrated in FIG. 71, with time (t) measured in weeks. Female ApoE*3-Leiden.CETP transgenic mice were fed a Western diet with 0.05% w/w cholesterol (equivalent to daily human intake) with (i) no drug (control), or the same diet containing (ii) obicetrapib alone (2 mg/kg/day), (iii) ezetimibe alone (1 mg/kg/day) or (iv) the combination of obicetrapib and ezetimibe. In the experiment, the effects of the treatments on, amongst other things, plasma blood lipids and fecal bile acids and sterols were determined.

[3] = system: ApoE*3-Leiden.CETP transgenic mice; test: Example 13: plasma cholesterol and atherosclerosis development in aortic root of ApoE*3-Leiden.CETP mice; format: in vivo, mouse
Experimental: The current study was carried out to evaluate the effect of obicetrapib monotherapy and a combination of obicetrapib+ezetimibe on atherosclerosis development in a translational mouse model for hyperlipidemia and atherosclerosis.
The experimental protocol is illustrated in FIG. 82, with time (t) measured in weeks. Female ApoE*3-Leiden.CETP transgenic mice were fed a Western diet with 0.05% w/w cholesterol (equivalent to daily human intake) with (i) no drug (control), or the same diet containing (ii) obicetrapib alone (2 mg/kg/day), (iii) ezetimibe alone (on average 0.6 mg/kg/day) or (iv) the combination of obicetrapib and ezetimibe.

[4] = cited from earlier work
[5] = system: patients with hypercholesterolemia; conditions: cited from earlier work
[6] = obicetrapib 2 mg/kg/day, ezetimibe 1 mg/kg/day in Western diet
[7] = obicetrapib 2 mg/kg/day, ezetimibe on average 0.6 mg/kg/day in Western diet

Compound: O=C1[C@H](CC[C@H](O)c2ccc(F)cc2)[C@@H](c2ccc(O)cc2)N1c1ccc(F)cc1 [ezetimibe, (3R,4S)-1-(4-fluorophenyl)-3-[(3S)-3-(4-fluorophenyl)-3-hydroxypropyl]-4-(4-hydroxyphenyl)azetidin-2-one]
- additional/incremental (median) reduction of LDL-C of ezetimibe added on top of obicetrapib [1]: about 32%
- biliary bile acids and biliary bile acid flow ([2]; not shown): did not affect
- biliary cholesterol flow ([2]; not shown): no significant effects
- biliary cholesterol levels ([2]; not shown): decreased
- biliary phospholipids and biliary phospholipid flow ([2]; not shown): did not affect
- fecal neutral sterol excretion, change [2, 6]: +68%
- half-life of VLDL-like particles, change [2, 6]: −23%
- non-HDL-C levels, change [2, 6]: −24%
- total plasma cholesterol levels, change [2, 6]: −23%
- HDL-cholesterol ([3]; FIG. 84B): no increase
- severe lesions (types IV-V), change ([3]; aortic root, 28 weeks of treatment): −31%
- total atherosclerotic lesion size, change ([3]; aortic root, 28 weeks of treatment, versus control): −50%
- non-HDL-C levels, change [3, 7]: −19%
- total plasma cholesterol levels, change [3, 7]: −19%
- lesion number ([3]; versus control animals, FIG. 90B): no reduction
- solubility in water [4]: practically insoluble
- incremental reduction in LDL-C levels in combination with statins ([5]; Catapano et al. 2016): 15-20%
- LDL-C reduction typical with ezetimibe mono-therapy ([5]; hyperlipidemic patients, Catapano et al. 2016): 15-22%
- greater reduction in LDL-C, statin and ezetimibe in combination compared with statin alone ([5]; meta-analysis of 27 studies, more than 21,000 patients): 15.1%
